{"source": "BigSolDB 2.1"}
{"smiles": "CN[C@@H]1[C@H](O)[C@H](NC)[C@H]2O[C@@]3(O)C(=O)C[C@@H](C)O[C@H]3O[C@@H]2[C@H]1O.Cl.Cl.O.O.O.O.O", "values": [{"measurement": "solubility (mole fraction)", "setting": "in ethanol, 278.15 K", "value": 0.00342}, {"measurement": "solubility (mole fraction)", "setting": "in ethanol, 283.15 K", "value": 0.00412}, {"measurement": "solubility (mole fraction)", "setting": "in ethanol, 288.15 K", "value": 0.00443}, {"measurement": "solubility (mole fraction)", "setting": "in ethanol, 293.15 K", "value": 0.00484}, {"measurement": "solubility (mole fraction)", "setting": "in ethanol, 298.15 K", "value": 0.00545}, {"measurement": "solubility (mole fraction)", "setting": "in ethanol, 303.15 K", "value": 0.00629}, {"measurement": "solubility (mole fraction)", "setting": "in ethanol, 308.15 K", "value": 0.00664}, {"measurement": "solubility (mole fraction)", "setting": "in ethanol, 313.15 K", "value": 0.00738}, {"measurement": "solubility (mole fraction)", "setting": "in ethanol, 318.15 K", "value": 0.00807}, {"measurement": "solubility (mole fraction)", "setting": "in isopropanol, 278.15 K", "value": 0.00031}, {"measurement": "solubility (mole fraction)", "setting": "in isopropanol, 283.15 K", "value": 0.0004}, {"measurement": "solubility (mole fraction)", "setting": "in isopropanol, 288.15 K", "value": 0.00051}, {"measurement": "solubility (mole fraction)", "setting": "in isopropanol, 293.15 K", "value": 0.00066}, {"measurement": "solubility (mole fraction)", "setting": "in isopropanol, 298.15 K", "value": 0.00074}, {"measurement": "solubility (mole fraction)", "setting": "in isopropanol, 303.15 K", "value": 0.00086}, {"measurement": "solubility (mole fraction)", "setting": "in isopropanol, 308.15 K", "value": 0.00101}, {"measurement": "solubility (mole fraction)", "setting": "in isopropanol, 313.15 K", "value": 0.00114}, {"measurement": "solubility (mole fraction)", "setting": "in isopropanol, 318.15 K", "value": 0.00131}, {"measurement": "solubility (mole fraction)", "setting": "in methanol, 278.15 K", "value": 0.00988}, {"measurement": "solubility (mole fraction)", "setting": "in methanol, 283.15 K", "value": 0.0138}, {"measurement": "solubility (mole fraction)", "setting": "in methanol, 288.15 K", "value": 0.0185}, {"measurement": "solubility (mole fraction)", "setting": "in methanol, 293.15 K", "value": 0.0226}, {"measurement": "solubility (mole fraction)", "setting": "in methanol, 298.15 K", "value": 0.032}, {"measurement": "solubility (mole fraction)", "setting": "in methanol, 303.15 K", "value": 0.0385}, {"measurement": "solubility (mole fraction)", "setting": "in methanol, 308.15 K", "value": 0.0439}, {"measurement": "solubility (mole fraction)", "setting": "in methanol, 313.15 K", "value": 0.0531}, {"measurement": "solubility (mole fraction)", "setting": "in methanol, 318.15 K", "value": 0.0629}, {"measurement": "solubility (mole fraction)", "setting": "in n-propanol, 278.15 K", "value": 0.00098}, {"measurement": "solubility (mole fraction)", "setting": "in n-propanol, 283.15 K", "value": 0.00125}, {"measurement": "solubility (mole fraction)", "setting": "in n-propanol, 288.15 K", "value": 0.00157}, {"measurement": "solubility (mole fraction)", "setting": "in n-propanol, 293.15 K", "value": 0.00219}, {"measurement": "solubility (mole fraction)", "setting": "in n-propanol, 298.15 K", "value": 0.0027}, {"measurement": "solubility (mole fraction)", "setting": "in n-propanol, 303.15 K", "value": 0.00336}, {"measurement": "solubility (mole fraction)", "setting": "in n-propanol, 308.15 K", "value": 0.00373}, {"measurement": "solubility (mole fraction)", "setting": "in n-propanol, 313.15 K", "value": 0.00447}, {"measurement": "solubility (mole fraction)", "setting": "in n-propanol, 318.15 K", "value": 0.00531}]}
